# US6603023B2 (priority 1996, dated 2003)
# pIC50: −log10 of the molar value. Where two headings read alike, the source gives them in different places.
# Tests used:
# [1] = system: CCRF-CEM human T-cell acute lymphoblastic leukemia cell line; assay: XTT cytotoxicity (cell growth inhibition), CCRF-CEM
# Experimental: The DC-3F hamster lung fibroblast cell line and its actinomycin D-selected sublines (DC-3F/ADII and DC-3F/ADX) were obtained from the Memorial Sloan-Kettering Cancer Center (MSKCC).
# (§1) The drug-resistant cell lines were continuously cultured in the presence of the selecting agent, AD, DX, VBL or VM to maintain the drug resistant phenotypes. […] All cells were cultured in RPMI 1640-10% FBS at 37° C. 5% CO2 (see below).
# (§2) The cells were cultured at an initial density of 5×10^4 cells/mL. They were maintained in a 5% CO2-humidified atmosphere at 37° C. in RPMI-1640 medium (GIBCO-BRL, Gaithersburg, Md.) containing penicillin (100 U/mL), streptomycin ([…]) (GIBCO-BRL) and 10% heat inactivate fetal bovine serum. Culture for cell suspension (such as for CCRF-CEM, P388 and sublines), were performed by the XTT-microculture tetrazonium method (Scudiero, D. A. et al., Cancer Res. 1988, 48, 4827-4833) in duplicate in 96-well microtiter plates.
# (§3) 2′,3′-Bis(methoxy-4-nitro-5-sufophenyl)-5-[(phenylamino)carbonyl]2H-tetrazolium hyudroxide (XTT) was prepared at 1 mg/mL in prewarmed (37° C.) medium without serum. Phenazine methosulfate (PMS) and fresh XTT were mixed together to obtain 0.025 mM PMS-XTT solution (25 μL of the stock 5 mM PMS was added per 5 mL of 1 mg/mL XTT). Following a 72 h incubation, 50 μL of the assay aliquots were added to each well of the cell culture. After incubation at 37° C. for 4 h, absorbance at 450 nm and 630 nm was measured with a microplate reader (EL340, Bio-Tek Instruments, Inc., Winooski, Vt.).
# CCRF-CEM/VBL100 = assay: cells; format: cell-based, human; settings: read-out: IC50
# Experimental: as §1, §2, §3
# CCRF-CEM/VM1 = assay: cells; format: cell-based, human; settings: Table 6; single determinations; read-out: IC50
# Experimental: as §1, §2, §3
# [2] = system: Human Lymphoblastic Leukemia CCRF-CEM; assay: CCRF-CEM xenograft in nude mice, i.v. 6 h infusion; format: in vivo; settings: for Average Body Weight, Day 21: initial weight
# [3] = Dose DesoxyepoB 40, Taxol 20, i.v. infusion 6 hr on day 21,23,25,27
# [4] = Table 26, Dose Q2D x 4: DesoxyepoB 40, Taxol 20
# [5] = Table 5, CCRF-CEM/VLB, single determinations
smiles,measurement,setting,value
C/C(=C\c1csc(C)n1)[C@@H]1C[C@H]2O[C@H]2CCCC[C@H](O)[C@@H](C)C(=O)C(C)(C)[C@@H](O)CC(=O)O1 [#16],pIC50,"[1]; Table 6, single determinations",5.13
same,pIC50,"[1]; Table 7, CEM",5.13
same,pIC50,"CCRF-CEM/VBL100; Table 6, single determinations",4.78
same,pIC50,"CCRF-CEM/VBL100; Table 7, CEM/VBL",4.78
same,pIC50,CCRF-CEM/VM1,6.01
CC(=Cc1csc(C)n1)C1CC2OC2CCCC(C)C(O)C(C)C(=O)C(C)(C)C(O)CC(=O)O1 (centres unmarked) [#5],pIC50,"[1]; Table 6, single determinations",< 4.70
same,pIC50,"[1]; Table 7, CEM",< 4.70
same,pIC50,"CCRF-CEM/VBL100; Table 6, single determinations",4.45
same,pIC50,"CCRF-CEM/VBL100; Table 7, CEM/VBL",4.45
same,pIC50,CCRF-CEM/VM1,4.01
C/C1=C/C[C@@H](/C(C)=C/c2csc(C)n2)OC(=O)C[C@H](O)C(C)(C)C(=O)[C@H](C)[C@@H](O)[C@@H](C)CCC1 [DesoxyepoB],"Average Body Weight Changes, Day 23",[2]; [3],-1.4 g
same,"Average Body Weight Changes, Day 25",[2]; [3],-3.6 g
same,"Average Body Weight Changes, Day 27",[2]; [3],-3.9 g
same,"Average Body Weight Changes, Day 29",[2]; [3],-5.2 g
same,"Average Body Weight Changes, Day 31",[2]; [3],-4.2 g
same,"Average Body Weight Changes, Day 33",[2]; [3],-3.1 g
same,"Average Body Weight Changes, Day 35",[2]; [3],-2.3 g
same,"Average Body Weight Changes, Day 37",[2]; [3],-1.2 g
same,"Average Body Weight Changes, Day 39",[2]; [3],-0.2 g
same,"Average Body Weight Changes, Day 41",[2]; [3],+0.9 g
same,"Average Tumor Size (T/C), Day 21",[2]; [3],1.10 T/C
same,"Average Tumor Size (T/C), Day 23",[2]; [3],0.73 T/C
same,"Average Tumor Size (T/C), Day 25",[2]; [3],0.31 T/C
same,"Average Tumor Size (T/C), Day 27",[2]; [3],0.09 T/C
same,"Average Tumor Size (T/C), Day 29",[2]; [3],0 T/C
same,"Average Tumor Size (T/C), Day 31",[2]; [3],0 T/C
same,"Average Tumor Size (T/C), Day 33",[2]; [3],0 T/C
same,"Average Tumor Size (T/C), Day 35",[2]; [3],0 T/C
same,"Proportion of Tumor Disappearance (n/total), Day 21",[2]; [3],0/3
same,"Proportion of Tumor Disappearance (n/total), Day 23",[2]; [3],0/3
same,"Proportion of Tumor Disappearance (n/total), Day 25",[2]; [3],0/3
same,"Proportion of Tumor Disappearance (n/total), Day 27",[2]; [3],0/3
same,"Proportion of Tumor Disappearance (n/total), Day 29",[2]; [3],3/3
same,"Proportion of Tumor Disappearance (n/total), Day 31",[2]; [3],3/3
same,"Proportion of Tumor Disappearance (n/total), Day 33",[2]; [3],3/3
same,"Proportion of Tumor Disappearance (n/total), Day 35",[2]; [3],3/3
same,"Proportion of Tumor Disappearance (n/total), Day 37",[2]; [3],1/3
same,"Proportion of Tumor Disappearance (n/total), Day 39",[2]; [3],1/3
same,"Proportion of Tumor Disappearance (n/total), Day 41",[2]; [3],0/3
same,"Average Body Weight Change, Day 23",[2]; [4],-1.4 g
same,"Average Body Weight Change, Day 25",[2]; [4],-3.6 g
same,"Average Body Weight Change, Day 27",[2]; [4],-3.9 g
same,"Average Body Weight Change, Day 29",[2]; [4],-5.2 g
same,"Average Body Weight Change, Day 31",[2]; [4],-4.2 g
same,"Average Tumor Size (T/C), Day 23",[2]; [4],0.68 T/C
same,"Average Tumor Size (T/C), Day 25",[2]; [4],0.30 T/C
same,"Average Tumor Size (T/C), Day 27",[2]; [4],0.09 T/C
same,"Average Tumor Size (T/C), Day 29",[2]; [4],0 T/C
same,"Average Tumor Size (T/C), Day 31",[2]; [4],0 T/C
same,Tumor Disappearance,[2]; [4],3/3
same,"Average Body Weight, Day 21",[2]; [4],26.6 g
same,"Average Body Weight, Day 21",[2]; [3],26.6 g
CC(=Cc1csc(C)n1)C1CC2OC2CCCCC(O)C(C)C(=O)C(C)(C)C(O)CC(=O)O1 (mixture of isomers) [8-desmethyl Mix-cis Epo],pIC50,"[1]; Table 6, single determinations",6.02
same,pIC50,"CCRF-CEM/VBL100; Table 6, single determinations",5.23
same,pIC50,CCRF-CEM/VM1,5.59
CC(=Cc1csc(C)n1)C(O)CC=CCCCC(C)C(O)C(C)C(=O)C(C)(C)C(O)CC(=O)O (centres unmarked) [#12],pIC50,"[1]; Table 6, single determinations",6.10
same,pIC50,"[1]; Table 7, CEM",6.10
same,pIC50,"CCRF-CEM/VBL100; Table 6, single determinations",< 5.30
same,pIC50,"CCRF-CEM/VBL100; Table 7, CEM/VBL",< 5.30
same,pIC50,CCRF-CEM/VM1,< 5.30
CC[C@@]12CCC[C@H](C)[C@H](O)[C@@H](C)C(=O)C(C)(C)[C@@H](O)CC(=O)O[C@H](/C(C)=C/c3csc(C)n3)C[C@@H]1O2 [#27],pIC50,[1],9.00
same,fold more potent than Taxol,[1]; CCRF-CEM cells,> 2 fold
same,pIC50,"[1]; Table 5, single determinations",9.00
same,pIC50,"[1]; Table 7, CEM",9.00
same,pIC50,CCRF-CEM/VBL100; [5],8.14
same,pIC50,"CCRF-CEM/VBL100; Table 7, CEM/VBL",8.14
same,pIC50,CCRF-CEM/VBL100,8.14
CCC/C1=C\C[C@@H](/C(C)=C/c2csc(C)n2)OC(=O)C[C@H](O)C(C)(C)C(=O)[C@H](C)[C@@H](O)[C@@H](C)CCC1 [#17],pIC50,[1],7.05
same,Rel. Value (potency relative to Epo B),[1]; CCRF-CEM leukemic cells,1/257
same,pIC50,"[1]; Table 5, single determinations",7.05
same,pIC50,"[1]; Table 7, CEM",7.05
same,pIC50,CCRF-CEM/VBL100; [5],6.60
same,pIC50,"CCRF-CEM/VBL100; Table 7, CEM/VBL",6.60
same,pIC50,CCRF-CEM/VBL100,6.60
